Results as given in patent US8833363B2, “Ejection liquid, ejection method, method for forming liquid droplets, liquid ejection cartridge and ejection apparatus” (Canon Kabushiki Kaisha, priority 2004, dated 2014).

Tested on: Wister rats
Experiment: Confirmation of pharmacological activity: blood glucose level of rats after subcutaneous injection
Type: in vivo, rat
Conditions: 1.6 U/kg, 15, 30, 60 and 120 minutes after injection
Description: After anesthetic, Nembutal, was injected to Wister rats (male, 8 week-old, weight: about 250 g) fasted for one day, blood was taken from the tail vein. This is used as a base (control). […] The resultant liquid droplets were collected and subcutaneously injected into the rats in a dose of 1.6 U/kg. Blood was taken from the tail vein 15, 30, 60 and 120 minutes after the injection. The blood samples thus taken were centrifugally separated and the blood glucose levels of the obtained serums were analyzed (one group consisting of 6 rats). The same experiment was performed by using an insulin solution having no additives and not ejected in accordance with the thermal inkjet system as a Comparative Example.

Question: For “insulin: insulin solution having no additives and not ejected in accordance with the thermal inkjet system (Comparative Example of Example 25)”, which “effect in reducing blood glucose level” value is on record?
Answer: swiftly decreased
